Assay results as given in ChEMBL document CHEMBL3507680, “University of Dundee, Gates Library screen for HepG2 cell viability”.

Test: Human HepG2 cell viability assay in 384 well format
Format: toxicity, cell-based
Design: dose 125 nL, time 70.5 hour; concentration not given beside the values
Conditions: HepG2 cells, read-out: Inhibition

SMILES | cytotoxicity at 70.5 h [%]
CCc1c(C(=O)NCC2CCS(=O)(=O)C2)cnn1-c1ccc(C)cc1 (configuration not stated) | -20
O=C(NC[C@H]1OC[C@@H](NC2CCOCC2)[C@@H]1O)c1cccs1 | -8.14
COc1cc(C(=O)NC(C)c2cccs2)cc2c1OCCO2 (configuration not stated) | -9.64
O=C(CCNC(=O)c1ccc(Cl)cc1)NCc1nc(C2CC2)no1 | 19.3
CCC(=O)N1CC[C@@H]2[C@H](CC1)N(Cc1cccc(C)n1)CCS2(=O)=O | 1.51
CCCc1ccc(C(=O)N2CCc3c(nc(N(C)C)[nH]c3=O)C2)cc1 | -5.16
O=C1CO[C@H]2CN(Cc3ccc4c(c3)OCO4)C[C@H]2N1 | -7.08
CS(=O)(=O)N1CCCC12CCN(Cc1ccoc1)CC2 | -3.22
COCc1cc(CNC(=O)c2cc(NC(C)=O)ccc2Cl)n[nH]1 | -6.43
COc1ccc(CN2CCC[C@H]2c2nc(-c3cncnc3N)no2)cc1 | 12.8
Cc1[nH]ncc1CCCNC(=O)N1CCN2CCCCC2C1 (configuration not stated) | 8.45
CN(CC(N)=O)CC(=O)N(C1=CCCCC1)C1CC1 | -10.7
N#Cc1c(N)nc2c(c1-c1cnc(N3CCCC3)nc1)COCC2 | -5.19
O=C(NCCCN1CCCC1=O)Nc1ccc(Br)cc1Cl | -3.68
CS(=O)(=O)NCC1CCN(C(=O)Oc2ccccc2)CC1 | -3.79
O=C(c1ccc2[nH]ccc2c1)N1CCCCC1c1nc[nH]n1 (configuration not stated) | -5.67
O=C(c1ccco1)N1C[C@@H]2[C@@H](C1)OCC(=O)N2Cc1cccnc1 | 7.81
OCCCNc1nc(O)c2c(n1)-c1ccccc1CC21CCCCC1 | -9.73
Cc1cc(N2CCc3c(ncn3C)C2)nc(N)n1 | -0.513
CN1CCC/C1=N\S(=O)(=O)c1ccc(NC(=O)c2ccc(F)cc2)cc1 | -4.6
O=C(CCn1ccccc1=O)Nc1ccc(C(=O)O)cc1 | -4.88

SMILES | cytotoxicity at 70.5 h [%]
O=C(c1ccc[nH]1)N1CCc2nnc(Cn3cccn3)n2CC1 | -2.61
COC(=O)c1c(C(F)(F)F)cnc(OC)c1Cl | -11.7
CC(=O)N1CCN(C(=O)C2SCCc3sccc32)CC1 (configuration not stated) | 20.4
Cc1c[nH]c(CN2CCOC(c3ccc(F)cc3)C2)c(C)c1=O (configuration not stated) | -3.86
O=C(NCCN1CCCCC1CO)c1cc(-c2ccccc2)on1 (configuration not stated) | -4.82
CCOc1cc(C)nc(N2CCN(C(=O)c3cc(C)on3)CC2)n1 | -1.38
CN(Cc1ccsc1)C(=O)Nc1ccc(S(C)(=O)=O)cc1 | -1.57
Fc1ccccc1CN1C[C@@H]2OCCN(c3ncccn3)[C@@H]2C1 | -13.2
NC(=O)NC(=O)CNC1(c2ccc(Cl)cc2)CCC1 | 2.08
O=C(c1ccncc1)N1CCCN(Cc2nnc(C3CC3)o2)CC1 | -2.96
O=C1NC2(CCN(Cc3cccs3)CC2)CC1c1ccncc1 (configuration not stated) | 10.2
CCN1CCCCC1C(=O)Nc1cccc(-c2nnc[nH]2)c1 (configuration not stated) | -0.846
COCCN(CCOC)Cc1nc2c(cnn2C)c(=O)[nH]1 | 7
Cc1noc([C@@H]2CCO[C@@H]3CCN(Cc4ccc(C)s4)C[C@@H]32)n1 | -10.1
Cc1cnn(CCNCCCOc2ccccc2)c1 | -7.1
O=C(NCC1CC1)[C@@H]1CCO[C@@H]2CCN(CCc3ccccc3)C[C@H]21 | -5.09
CCc1nc(NCCCn2cccn2)c2c(n1)c(C)nn2C | -1.69
CN1CCOC(CNCc2coc(-c3ccccc3Cl)n2)C1 (configuration not stated) | 1.39
Cn1cc(CN2C[C@@H]3COC[C@]3(CNC(=O)c3ccco3)C2)cn1 | -10.1
CNC(=O)CS(=O)(=O)NC1CCC(C)CC1 (configuration not stated) | -15.8
Cc1ccc(-c2noc([C@@H]3Cc4nc[nH]c4CN3)n2)cc1 | -11.9

SMILES | cytotoxicity at 70.5 h [%]
CC(Cn1cccn1)NC(=O)N(C)Cc1cnn(C)c1 (configuration not stated) | -7.21
O=C(NCC1CC1)c1c2c(N3CCCC3)ncnc2n2ccccc12 | 9.08
CN(Cc1nnc2n1CCC2)S(=O)(=O)c1ccc(Br)cc1Cl | -4.12
COc1ccccc1CC1CCCN(C(=O)c2nccnc2N)C1 (configuration not stated) | -6.5
COc1cccc(F)c1-c1c[nH]c(C)n1 | 11.7
CN(C)C1CCCN(C(=O)CCc2csc(N)n2)CC1 (configuration not stated) | 1.01
CCOCCCC(=O)NCc1ccc(N2CCCCC2)cc1 | -11.1
CN1CCN(S(=O)(=O)C2CC2)Cc2cccnc21 | -0.334
CN(C(=O)NCc1nccn1CCc1ccccc1)C1CCC1 | 1.68
CCc1nc(C(=O)N(CC)CC(=O)Nc2cc(Cl)ccc2C)c[nH]1 | -4.72
CCN(CC)c1nc(O)cc(C(C)n2ncc3ccccc3c2=O)n1 (configuration not stated) | -4.03
O=C(CNc1cc(-n2cnnn2)ccc1F)Nc1ccccc1Cl | -114
CS(=O)(=O)c1ccc(CNC(=O)Nc2cn[nH]c2)cc1 | -12.4
CC(C)C[C@H](N)COc1cccc(F)c1Oc1ccccc1 | 19.1
CCn1ncc2c1CN(CCc1cccc(Cl)c1)CC2COC (configuration not stated) | -8.31
CN(Cc1cccc(C#N)c1)Cn1nc(C(C)(C)C)ccc1=O | -0.146
Cc1cc(C)n(CC2CCCCN2CC(=O)Nc2ccncc2)n1 (configuration not stated) | -0.378
Cc1nc2sccn2c1C(=O)N1CCc2c(nc(N(C)C)[nH]c2=O)C1 | 1.53
CNC(=O)CN1CCN(C(=O)Nc2ccc(C)s2)CC1 | -1.2
COc1c(CNCC(O)c2ccccc2)c(C(C)C)nn1C (configuration not stated) | -9.73
Cc1nc(C)n(C2CCCN(C(=O)c3ccc(O)nc3)C2)n1 (configuration not stated) | -5.29

SMILES | cytotoxicity at 70.5 h [%]
Cc1cn2nc(N3CCCC3CC(C)(C)C)sc2n1 (configuration not stated) | -4.57
COc1ccc(C(C)N(C)Cc2c(C(C)(C)C)[nH]c3ncccc23)cc1 (configuration not stated) | 12.9
CC(C)c1nccn1C1CCCN(C(=O)c2cccc3[nH]ncc23)C1 (configuration not stated) | -8.02
Fc1ccc(CN2CCCC3(COCCN(Cc4c[nH]nn4)C3)C2)cc1 (configuration not stated) | -5.93
CC(C(=O)NCCCn1ccnc1)n1cc(Br)cn1 (configuration not stated) | -9.82
COc1ccccc1NC(=O)C1(c2ccccc2)CCOCC1 | -6.73
Cc1ccc(-c2ccc(CC3NCCN(C)C3=O)cc2)cc1 (configuration not stated) | 20.9
CNC(=O)CN1C(=O)CCC12CCCN(Cc1ccccn1)C2 (configuration not stated) | 2.52
CN1CCCN(C[C@@H]2CN(C(=O)CCc3cn[nH]c3)C[C@@H]2CO)CC1 | -3.81
CCN(Cc1ccoc1)C(=O)c1cc(S(N)(=O)=O)c(C)o1 | -5.31
Cc1nc2ncccn2c1C(=O)N1CCc2[nH]cnc2C1 | -1.79
CN(C)C(=O)c1cc(-c2cnc(N)nc2)nc2cc(F)ccc12 | -2.39
Cc1ccccc1C(=O)N1CCOC(c2ncc(CN(C)C)[nH]2)C1 (configuration not stated) | -6.83
COC[C@@H]1CCC[C@]12CN(S(=O)(=O)c1cn(C)cn1)CCO2 | -6.65
CC(=O)N1CCN(C(=O)CN2CCN(c3cccc(C)c3)CC2)CC1 | -6.8
CC(C)NC(=O)c1nnn(-c2cccc(F)c2)c1C1CC1 | -6.18
CCOC(=O)CSc1ccc(-c2nc(C)no2)cn1 | 1.96
CCCN(CC(=O)OC)S(=O)(=O)c1cnc2c(c1)c(C)nn2C | -7.82
Cc1ccc(NCCCc2c(C)noc2C)nn1 | -6.84
